# Results taken from patent US9765115B2, “Inhibitors of metastasis, methods of generating such inhibitors and their therapeutic applications” (Board of Supervisors of Louisiana State University acting …, priority 2011, dated 2017).
# What was measured:
# [1] = system: LNCaP, PC-3M and DU-145 cell lines; assay: Paracellular permeability (PCP), TRITC-dextran diffusion; assay type: cell-based; details: 50 nM CT
# Experimental: For PCP measurements, cells were grown to confluence on Transwell filters. Tetra methyl rhodamine-dextran (1 mg/ml, ˜4 kDa, Sigma) was added to the upper chamber. Fluorescence of the lower chamber medium was measured in Modulus Microplate Reader (Turner Biosystems) at various time intervals.
# Whether CT produces similar effects in LNCaP, PC-3M and DU-145 cell lines, which endogenously express CTR, was examined as shown in FIG. 1A. FIGS. 9A-9B depict the effect of CT on tight junction (TJ) disruption as measured using TER and PCP in the three prostate cancer cell lines—LNCaP, PC-3M, and DU-145. Cells were serum-starved for 4 hours, then treated with and without 50 nM CT, before measuring TER as described above. In FIG. 9B, cells were treated with and without 50 nM CT, and PCP determined by diffusion of ˜4 kDa TRITC-conjugated dextran from the upper to the lower chamber in one hour. The results are expressed as μg/ml/hour of TRITC-Dextran diffused ±SEM (n=6; *p<0.05 (−CT v +CT, One way ANOVA and Newman-Keul's test)). FIG. 9C depicts effects of CT on cell invasion in the same three cell lines—PC-3M, LNCaP, and DU145. Cells were added to upper insert of invasion chambers with or without 50 nM CT, and cells that passed through the Matrigel™ barrier were counted after 48 h. The results are expressed as mean number of invaded cells per 400× field ±SEM (n=6; *p<0.05).
# [2] = system: ZO-1, claudin-3 and occludin; assay: Subcellular distribution of TJ proteins (immunofluorescence, TX-100 soluble/insoluble fractions); assay type: cell-based
# Experimental: Approximately 1×10^4 cells were grown to confluence on 0.4 μm 12-well Transwell™ filters (Costar, Mass.). After overnight serum starvation, cells were treated with or without 50 nM CT for 60 min, fixed with methanol and incubated with primary antisera (rabbit anti-ZO-1 IgG, Zymed, Calrsbad, Calif.; Claudin-3, CTR-FLAG). Immunostaining was visualized after incubation with TRITC-labelled secondary antibody (1:500). Controls with either non-immune goat IgG or no primary antisera were used in all studies. Digital photographs were taken with Retiga 1300 camera connected to a Nikon Optiphot-2 microscope equipped for epifluorescence, the images were captured at different wavelengths for TRITC and DAPI, were given red and blue pseudo colors respectively, and analyzed using IP Lab™ image analysis program.
# Confluent 100 mm plates of each PC sublines were serum starved overnight, and treated with or without 50 nM CT for various periods. Soluble extract (cytosolic) was obtained by incubating cells with 10 mM Tris-HCl, pH-7.4 (containing 150 mM NaCl, 2 mM CaCl2, protease-phosphatase inhibitors cocktail, 1% Nonidet P-40 and 1% Triton-X-100) for 30 min with occasional agitation. After washing the plates with TBS (containing protease inhibitors), the insoluble fraction (plasma membrane-associated) was scraped out from the plates with TBS containing 0.5% SDS, 1% Nonidet P-40, protease inhibitors. The triton X-100-insoluble fraction was collected after homogenizing and centrifuging at 14,000×g for 5 min at 4 C, and protein content of the supernatants was determined using Bio-Rad Reagent (Bio-Rad, Hercules, Calif.).
# The lysate fractions were boiled for 5 min in 2× Laemmli buffer. The proteins were fractionated by SDS-PAGE electrophoresis, and electrically transferred to a nitrocellulose membrane. The blots were incubated the appropriate antisera followed by HRP-conjugated secondary antibody; and the blots were developed with ECL. To control for protein loading and transfer, the blots were stripped, and reprobed with either β-actin (insoluble) or α-tubulin (soluble) antibody. The same experiment was repeated two more times.
# To test whether CT-mediated loss of TJ functionality is caused by disassembly of TJs, subcellular distribution of key TJ proteins was examined. Polarized PC-3CTRwt cells were treated with 50 nM CT for 30 min, and then processed for immunofluorescence with anti-FLAG (CTR), anti-ZO-1 and anti-claudin-3 antibodies.
# It is known that junctional proteins are functional only when they are at cell-cell contacts on the membrane (Shin et al., 2006). Therefore, the subcellular distribution of TJ proteins was analyzed by immunoblotting TX-soluble (cytoplasmic) and TX-insoluble (membrane) fractions of cell lysates. […] The endocytosis of TJ proteins was rapid, and increased progressively throughout the experimental period of four hours. Specifically, translocation of ZO-1 from the insoluble to the soluble compartment was quicker and observed within 1 min of CT stimulus. Similar translocation of occludin was observed after ten min, and that of claudin-3 after 30 min of CT stimulus.
# To test whether specific PKA inhibitors abrogate CT-induced TJ disassembly, two specific, well-characterized PKA inhibitors, mPKI and H-89, were used. PC-3CTRwt cells were treated with CT (50 nM for 30 min) in the presence of mPKI (100 nM) or H-89 (10 μM). Either of these inhibitors was added 15 min prior to the addition of CT. […]
substance,measurement,setting,value
calcitonin [CT],PCP,[1],increased PCP
same,time to translocation of ZO-1,[2]; CT 50 nM,≤ 1 min
same,time to translocation of claudin-3,[2]; CT 50 nM,30 min
same,time to translocation of occludin,[2]; CT 50 nM,after ten min
same,"localization of CTR, ZO-1 and claudin-3 (immunofluorescence)","[2]; PC-3CTRwt cells, 50 nM CT, 30 min",loss of these proteins at cell-cell contacts and their internalization
same,"endocytosis of ZO-1, claudin 3 or occludin","[2]; cells expressing CTRΔESS or ZO-1ΔPDZ3, CT 50 nM",could not induce endocytosis
